Experiments:
[1] = tested on: mu opiate receptor (MOR); assay: MOR agonist activity using [35S]GTPγS binding assay in striatal membranes; type: biochemical; details: for % DAMGO (0.1 μM) / % DAMGO (1 μM): relative to DAMGO; for % DAMGO + BFNA: 1 μM compound + β-FNA, relative to DAMGO + BFNA
Method: To assess the mu opiate receptor (MOR) agonist activity of positive compounds from the FLNA screening, compounds were tested in a [^35S]GTPγS binding assay using striatal membranes. […] This assay measures a functional consequence of receptor occupancy at one of the earliest receptor-mediated events. The assay permits traditional pharmacological parameters of potency, efficacy and antagonist affinity, with the advantage that agonist measures are not subjected to amplification or other modulation that may occur when analyzing parameters further downstream of the receptor.
Thus, striatal tissue was homogenized in 10 volumes of ice cold 25 mM HEPES buffer, pH 7.4, which contained 1 mM EGTA, 100 mM sucrose, 50 μg/ml leupeptin, 0.04 mM PMSF, 2 μg/ml soybean trypsin inhibitor and 0.2% 2-mercaptoethanol. The homogenates were centrifuged at 800×g for 5 minutes and the supernatants were centrifuged at 49,000×g for 20 minutes. The resulting pellets were suspended in 10 volume of reaction buffer, which contained 25 mM HEPES, pH 7.5, 100 mM NaCl, 50 μg/ml leupeptin, 2 μg/ml soybean trypsin inhibitor, 0.04 mM PMSF and 0.02% […].
The resultant striatal membrane preparation (200 μg) was admixed and maintained (incubated) at 30° C. for 5 minutes in reaction buffer as above that additionally contained 1 mM MgCl2 and 0.5 nM [^35S]GTPγS (0.1 μCi/assay, PerkinElmer Life and Analytical Sciences) in a total volume of 250 μl and continued for 5 minutes in the absence or presence of 0.1-10 μM of an assayed compound of interest. The reaction was terminated by dilution with 750 μl of ice-cold reaction buffer that contained 20 mM MgCl2 and 1 mM EGTA and immediate centrifugation at 16,000×g for 5 minutes.
The resulting pellet was solubilized by sonicating for 10 seconds in 0.5 ml of immunoprecipitation buffer containing 0.5% digitonin, 0.2% sodium cholate and 0.5% NP-40. Normal rabbit serum (1 μl) was added to 1 ml of lysate and incubated at 25° C. for 30 minutes. Nonspecific immune complexes were removed by incubation with 25 μl of protein A/G-conjugated agarose beads at 25° C. for 30 minutes followed by centrifugation at 5,000×g at 4° C. for 5 minutes. The supernatant was divided and separately incubated at 25° C. for 30 minutes with antibodies raised against Gαo proteins (1:1,000 dilutions).
The immunocomplexes so formed were collected by incubation at 25° C. for 30 minutes with 40 μl of agarose-conjugated protein A/G beads and centrifugation at 5,000×g at 4° C. for 5 minutes. The pellet was washed and suspended in buffer containing 50 mM Tris-HCl, pH 8.0, and 1% NP-40. The radioactivity in the suspension was determined by liquid scintillation spectrometry.

[2] = molecular target: FLNA pentapeptide of SEQ ID NO: 1 (Bn-VAKGL) (Homo sapiens, UniProt P21333); assay: FITC-NLX-based FLNA screening assay (inhibition of FITC-naloxone binding to Bn-VAKGL on streptavidin plates)
[3] = Series C-1, 0.1 μM compound, [35S]GTPγS binding to Gαo, striatal membranes
[4] = Series C-1, 1 μM compound + 1 μM β-FNA
[5] = Series C-1, 1 μM compound, [35S]GTPγS binding to Gαo, striatal membranes
[6] = Series C-2, 0.1 μM compound, [35S]GTPγS binding to Gαo, striatal membranes
[7] = Series C-2, 1 μM compound + 1 μM β-FNA
[8] = Series C-2, 1 μM compound, [35S]GTPγS binding to Gαo, striatal membranes

SMILES	% DAMGO (0.1 μM) ([1]; Series C-1, 0.1 μM compound)	Concentration of FLNA-Binding Compound as Agonist 0.1 μM [1, 3]	Concentration of FLNA-Binding Compound as Agonist 1 μM + BFNA [1, 4]	% DAMGO + BFNA ([1]; Series C-1)	% DAMGO (1 μM) ([1]; Series C-1, 1 μM compound)	Concentration of FLNA-Binding Compound as Agonist 1 μM [1, 5]	% DAMGO (0.1 μM) ([1]; Series C-2, 0.1 μM compound)	MOR agonist activity, percent [35S]GTPγS binding at the stated compound concentration [1, 6]	MOR agonist activity, percent [35S]GTPγS binding at the stated compound concentration [1, 7]	% DAMGO + BFNA ([1]; Series C-2)	% DAMGO (1 μM) ([1]; Series C-2, 1 μM compound)	MOR agonist activity, percent [35S]GTPγS binding at the stated compound concentration [1, 8]	other results
CC(=O)c1ccc(S(=O)(=O)N2CCC3(CC2)NCC(=O)N3Cc2ccccc2)cc1 [Compound C0082M]	113.7%	228.1%	97.6%	181.1%	107.8%	338.4%	–	–	–	–	–	–	–
O=C(c1ccc([N+](=O)[O-])cc1)N1CCC2(CC1)OCCN2S(=O)(=O)c1ccc([N+](=O)[O-])cc1 [Compound C0033]	85.9%	134.5%	76.6%	235.0%	80.6%	186.4%	–	–	–	–	–	–	–
COc1ccc(CCCCC2c3c(cc4c(c3OC)OCO4)CC[N+]2(C)C)cc1 (stereo not shown) [Compound B0056]	–	–	–	–	–	–	–	–	–	–	–	–	% DAMGO (0.1 μM) ([1]; Series B, 0.1 μM compound): 98.9%; MOR agonist activity, percent [35S]GTPγS binding at the stated compound concentration ([1]; Series B, 0.1 μM compound, [35S]GTPγS binding to Gαo, striatal membranes): 174.7%; MOR agonist activity, percent [35S]GTPγS binding at the stated compound concentration ([1]; Series B, 1 μM compound + 1 μM β-FNA): 41.8%; % DAMGO + BFNA ([1]; Series B): 158.9%; % DAMGO (1 μM) ([1]; Series B, 1 μM compound): 113.6%; MOR agonist activity, percent [35S]GTPγS binding at the stated compound concentration ([1]; Series B, 1 μM compound, [35S]GTPγS binding to Gαo, striatal membranes): 288.8%
CC(=O)c1ccc(S(=O)(=O)N2CCC3(CC2)NC(=O)CN3Cc2ccccc2)cc1 [Compound C0085M]	105.5%	–	–	112.6%	78.4%	–	–	–	–	–	–	–	–
COc1ccc(S(=O)(=O)N2CCOC23CCCNC3)cc1 (stereo not shown) [Compound C0145M-3]	–	–	–	–	–	–	112.2%	193.0%	87.0%	95.3%	88.7%	289.2%	–
COc1ccc(CN2CCC3(CC2)OCCN3S(=O)(=O)c2ccc(OC)cc2)cc1 [Compound C0038]	–	–	–	–	–	–	–	–	–	–	–	–	inhibition at 0.01 µM ([2]; FLNA-binding compound 0.01 μM, 10 nM FITC-NLX, read-out: Percent Binding Inhibition): 31.7%; inhibition at 0.1 µM ([2]; FLNA-binding compound 0.1 μM, 10 nM FITC-NLX, read-out: Percent Binding Inhibition): 36%; inhibition at 1 µM ([2]; FLNA-binding compound 1 μM, 10 nM FITC-NLX, read-out: Percent Binding Inhibition): 43.5%
O=C1CC[C@@]2(O)[C@H]3Cc4ccc(O)c5c4[C@@]2(CCN3CC2CC2)[C@H]1O5 [NTX, naltrexone, reference compound]	–	–	–	–	–	–	–	–	–	–	–	–	Inhibition of 10 nM FITC-conjugated NLX binding to biotinylated FLNA pentapeptide (FIG. 28) ([2]; 1 μM): inhibit well
C[C@@H](NC(=O)[C@@H](N)Cc1ccc(O)cc1)C(=O)NCC(=O)N(C)[C@@H](Cc1ccccc1)C(=O)NCCO [DAMGO, [D-Ala2, N-MePhe4, Gly-ol]-enkephalin, reference compound]	100%	168.5%	53.2%	100%	100%	266.1%	100%	–	–	100%	100%	–	MOR agonist activity, FLNA-Binding Compound as Agonist 0.1 μM (preliminary study) ([1]; 0.1 μM, average of two runs): 144.7%; MOR agonist activity, FLNA-Binding Compound as Agonist 1 μM + βNFA (preliminary study) ([1]; 1 μM + βNFA, average of two runs): 56.8%; MOR agonist activity, FLNA-Binding Compound as Agonist 1 μM (preliminary study) ([1]; 1 μM, average of two runs): 233.4%; Concentration of FLNA-Binding Compound as Agonist 0.1 μM [1, 6]: 168.5%; Concentration of FLNA-Binding Compound as Agonist 1 μM + BFNA [1, 7]: 53.2%; Concentration of FLNA-Binding Compound as Agonist 1 μM [1, 8]: 266.1%
O=C1CN(Cc2ccccc2)C2(CCN(C3CCCCC3)CC2)N1 [C0137M(P7)]	–	–	–	–	–	–	95.6%	180.8%	55.8%	115.1%	78.1%	193.8%	–
COc1ccc(S(=O)(=O)N2CCC3(NCCO3)C3CCCCC32)cc1 (stereo not shown) [Compound C0144M-2]	–	–	–	–	–	–	108.3%	186.3%	125.9%	137.9%	90.8%	295.9%	–
